Data reported in patent US20130053435A1, “Methods of Treating Alcohol Intoxication, Alcohol Use Disorders and Alcohol Abuse Which Comprises the Administration of Dihydromyricetin” (priority 2011, published 2013).
pIC50: −log10 of the molar value.

Assays:
[1] = system: benzodiazepine site of GABAARs; assay: [3H]flunitrazepam binding in rat cortical membrane homogenates
Description: Standard procedures for preparation of rat cortical membranes for radioligand binding assays were conducted as previously described with modifications in speed and number of centrifugation and washes, and buffer compositions. […] Naïve rat cortex was dissected from brain and homogenized in 0.32 M sucrose, 10 mM HEPES buffer (pH 7.4), and centrifuged at 650×g, 4° C. The subsequent supernatant was centrifuged at 150,000×g to collect the desired membrane-containing pellet. The pellet was washed and centrifuged two more times, first using ice-cold water and second using membrane buffer containing 50 mM KH2PO4, 1 mM EDTA, 2 mM benzamidine HCl, 0.5 mM DTT, 0.1 mM benzethonium HCl, 0.01% bacitracin, 0.2 PMSF (pH 7.4), and the resulting pellet was frozen. On the day of binding assay, the pellet was homogenized in assay buffer containing 50 mM KH2PO4, 1 mM EDTA, 200 mM KCl (pH 7.4) and centrifuged, and resuspended in fresh assay buffer to a final protein concentration of 1 mg/ml. […] Specific binding was defined as the total amount bound (zero unlabeled ligand) minus the binding in the presence of 10 μM final concentration flurazepam (Sigma). Data was analyzed with GraphPad Prism 4.0 Software (San Diego, Calif.) to determine IC50 (One-site competition equation) and Hill slope (Sigmoidal Dose-Response equation). Experiments were conducted in triplicate.

[2] = system: PTZ-induced seizures in rats; assay: PTZ-induced seizures after EtOH withdrawal; type: in vivo, rat; settings: for PTZ-induced seizure duration: FIG. 12C
Description: Pentylenetetrazol (PTZ)-induced seizures were also measured in rats. […] PTZ dose used in this study (42 mg/kg in saline) was determined as the dose that induced seizures in 75% naïve rats. Briefly, after i.p. injection of PTZ, the time to onset and the duration of tonic-clonic seizures was determined as described previously. The researchers who conducted the animal behavior experiments were blind to treatment groups. Animals were used once only for any determination.
(§1) 48 hr after injection, rats were sub-divided into 3 groups to measure signs of EtOH withdrawal.
As described herein, hyperexcitability was assayed with PTZ-induced seizures duration (FIG. 12C). PTZ induced 0.9±0.2 min seizures in subjects of the vehicle group and 6.5±1.1 min seizures in subjects of the EtOH group.

Plasma [EtOH] assay = type: in vivo, rat; settings: two-bottle choice, E+D/water group, end of the fourth week
Description: See Liang (2007). The rat was put into a restraint tube and its tail was warm in about 40° C. The tail vein at the tip of the rail was punched with a sharp blade. Approximately 0.2 ml venous blood was dropped to a capillary blood collection tube containing lithium heparin (Ram Scientific Inc. Yonkers, N.Y.). Blood samples were centrifuged at 2500 rpm for 15 min. The supernatant was collected and stored at −80° C. until assay. The EtOH content of each blood sample was measured in duplicate along with EtOH standards using the alcohol oxidase reaction procedures (GM7 Micro-Stat; Analox Instruments, Lunenberg, Mass.).

[3] = Metabolic studies in rats; type: in vivo, rat; settings: DHM oral administration, 1 mg/kg
[4] = system: EtOH withdrawal-induced tolerance in rats; assay: EtOH withdrawal-induced tolerance measured by acute EtOH-induced LORR; type: in vivo, rat; settings: for LORR duration after 48 hr withdrawal: test EtOH 3 g/kg i.p.; for acute EtOH-induced LORR after 48 hr withdrawal: FIG. 12B
Description: See Kakihana R, et al. (1966) Science 154(756):1574-1575). […] LORR duration ended when the animal was able to flip over three times in 30 s. LORR assays were blindly performed. LORR durations were reported as mean (min)±SEM.
After a 48 hr withdrawal period, EtOH-induced LORR assays (EtOH, 3 g/kg, i.p.) were performed.
as §1
Tolerance to EtOH was measured with acute EtOH-induced LORR (in minutes, FIG. 12B). EtOH induced 63.6±7.0 LORR in the vehicle group subjects as compared to 10.8±3.8 LORR in EtOH group subjects.

[5] = system: EtOH withdrawal anxiety in rats; assay: Elevated plus-maze (EPM) after EtOH withdrawal; type: in vivo, rat
Description: as §1
Anxiety and locomotion/ataxia associated with EtOH withdrawal was measured on an elevated plus-maze in EtOH-withdrawn rats (EPM, FIG. 12A). Spent time was measured in minutes. The plus-maze was constructed and the measurements were scored as described previously. See Liang et al. (2004) J Pharmacol Exp Ther 310:1234-1245. Briefly, the maze was elevated 1 m above the floor, and contained four 51 cm-long, 11.5 cm-wide arms arranged at right angles. The closed arms had opaque walls 30 cm high, extending the length of the arm. At the time of the test, each animal was placed in the center of the maze facing an open arm and allowed to explore for a 5-min session. During the session, the animal's behavior (e.g. number of arm entries and time spent in each arm per entry) was recorded on a camcorder

GABAAR α4 subunit = assay: Western blot of hippocampal tissue after 48 hr withdrawal; type: in vivo, rat
Description: Parallel Western blots from rat hippocampus were examined to determine whether EtOH induced changes in total protein of GABAAR α4 subunits. Hippocampal tissues from rats were lysed in RIPA-buffer containing 1% Triton X-100, 0.1% sodium dodecyl sulfate (SDS), 50 mM Na3PO4, 150 mM NaCl, 2 mM EDTA, 50 mM NaF, 10 mM sodium pyrophosphate, 1 mM sodium orthovanadate, 1 mM phenylmethylsulfonyl fluoride (PMSF) and Complete protease inhibitor cocktail (Roche). The lysate was centrifuged for 15 min (14,000×g, 4° C.) and the supernatant collected for Western blot analysis. Western blots were performed using rabbit anti-GABAAR α4 (aa 379-421) and mouse anti-β-actin (Sigma) followed by HRP-conjugated secondary antibodies. Bands were detected using ECL detection kit (Amersham) and analyzed by densitometric measurements using ImageQuant 5.2 (Molecular Dynamics). Bands were stripped with buffer containing 62.5 mM Tris-HCl, 100 mM β-mercaptoethanol and 2% SDS (pH 6.7) and reprobed several times. Protein concentrations were determined with BCA Protein Assay Kit (Pierce) according to the manufacturer instructions.
The total protein content of GABAAR α4 subunit in hippocampus 48 hr after the above 4 treatments was assayed.

[6] = EtOH+DHM (E+D) group, 48 hr withdrawal

concentration at which significant inhibition of [3H]flunitrazepam binding starts [1]: 0.3 µM
pIC50 ([1]; [3H]flunitrazepam 1 nM, rat cortex membranes, read-out: IC50, inhibition of [3H]flunitrazepam binding): 5.36
binding to GABAARs in [3H]flunitrazepam binding assay ([1]; comparative experiments): bind GABAARs
metabolic change (food and water intake, urine volume and stool volume) [3]: no metabolic change
Compound: O=C1c2c(O)cc(O)cc2O[C@H](c2cc(O)c(O)c(O)c2)[C@H]1O [DHM, (2R,3R)-3,5,7-trihydroxy-2-(3,4,5-trihydroxyphenyl)-2,3-dihydrochromen-4-one]
PTZ-seizure duration ([2]; 24 hr after DHM 1 mg/kg i.p. alone): did not induce any significant or observable changes in seizure duration
PTZ seizure incidence ([2]; 24 hr withdrawal from DHM+EtOH): 85%
PTZ-seizure duration ([2]; 24 hr withdrawal from DHM+EtOH (1 mg/kg+3 g/kg, i.p.), PTZ 42 mg/kg): 0.9 ± 0.2 min
PTZ-induced seizure duration ([2]; 48 hr withdrawal, EtOH+DHM group): 1.7 ± 0.8 min
PTZ-induced seizure duration ([2]; 48 hr, DHM group): 0.6 ± 0.4 min
EtOH intoxication/withdrawal-induced increases in PTZ-induced seizure duration and incidence, female rats ([2]; female rats, co-administration of DHM+EtOH): inhibits, reduces and/or prevents
plasma [EtOH] vs. E/water group (Plasma [EtOH] assay): significantly lower
LORR duration after 48 hr withdrawal ([4]; DHM 1 mg/kg i.p. alone): 61 ± 4 min
acute EtOH-induced LORR after 48 hr withdrawal ([4]; DHM group): 65.6 ± 8.4 min
acute EtOH-induced LORR after 48 hr withdrawal ([4]; EtOH+DHM (1 mg/kg) group): 61.0 ± 3.8 min
LORR duration after 48 hr withdrawal ([4]; i.p. EtOH 3 g/kg + DHM 1 mg/kg 30 min after EtOH): 61 ± 4 min
time spent in closed arms ([5]; DHM group, 48 hr): 1.52 ± 0.56 min
time spent in open arms ([5]; DHM group, 48 hr): 2.92 ± 0.70 min
time spent in closed arms [5, 6]: 1.88 ± 0.79 min
time spent in open arms [5, 6]: 2.68 ± 0.77 min
total α4 subunit level (GABAAR α4 subunit; DHM group): 88.3±10.3 % of control
total α4-protein level (GABAAR α4 subunit; EtOH+DHM group): 93.0±21.0 % of control
